# Laboratory results reported in article PMC9694544, “Conteltinib (CT-707) in patients with advanced ALK-positive non-small cell lung cancer: a multicenter, open-label, first-in-human phase 1 study” (BMC Medicine, 2022).
# System: patients with ALK-positive NSCLC
# Assay: Phase 1 safety assessment (TRAEs by CTCAE 4.03, DLT, MTD, RP2D)
# Type: in vivo, human
# Protocol: In the dose-escalation phase, the dose was escalated sequentially from a low to a high level with a 3 + 3 dose-escalation scheme based on the modified Fibonacci method. The starting dose for conteltinib was 50 mg orally quaque die (QD). Dose escalation proceeded to the next six cohorts of 100 mg, 200 mg, 300 mg, 450 mg, 600 mg, and 800 mg QD. For each dose, there was a PK lead-in phase where a single dose was given 7 days before cycle 1 day 1. Then, each dose was taken continuously in a 28-day cycle. The first cycle was for dose-limiting toxicity (DLT) investigation. When one of three patients experienced a DLT in a dose cohort, three additional patients were enrolled in the same dose cohort to assess the dose level in a total of six patients. All patients received conteltinib until disease progression, unacceptable toxicity, or withdrawal of consent. Patients received follow-up safety assessments for 30 days (±7 days) after the last conteltinib dose.
# In the dose-expansion phase, each dose was taken continuously in a 28-day cycle. At the end of each cycle, a safety evaluation was conducted. If patients met the criteria to enter the next cycle, treatment with conteltinib was continued for subsequent cycles. All patients received conteltinib until disease progression, unacceptable toxicity, or withdrawal of consent. Patients received follow-up safety assessments for 30 days (±7 days) after the last dose of conteltinib.
# The safety of conteltinib was assessed in safety set (SS) which was based on the National Cancer Institute Common Terminology Criteria for Adverse Events (CTCAE) version 4.03, laboratory tests, vital signs, ECG, and clinical observations. […] Adverse events (AEs) were judged to be treatment-related or not by investigators.
# DLTs were AEs occurring in the first cycle of treatment (28 days) that were attributed to conteltinib, and the criteria were grade 4 neutropenia lasting ≥ 7 days, febrile neutropenia, grade 3 thrombocytopenia, grade 3 non-hematologic toxicity, and any conteltinib-related toxicity resulting in treatment delay > 2 weeks or discontinuation of conteltinib treatment at the assigned dose level. Besides, grade 3 nausea, vomiting, or diarrhea for ≥ 3 days or grade 4 nausea, vomiting, or diarrhea of any duration was considered as a DLT. The MTD was defined as the dose of conteltinib that would be closest to but not higher than a 33% probability of a DLT.
smiles,measurement,setting,value
COc1cc(N2CCC(N3CCN(C)CC3)CC2)ccc1Nc1nc2c(c(Nc3ccccc3S(=O)(=O)NC(C)C)n1)CCN2 [Conteltinib],TRAE Hypercholesterolemia,"450 mg QD (n=14), Grade 1–2",1 (7.1) n (%)
same,TRAE Hyperglycemia,"450 mg QD (n=14), Grade 1–2",1 (7.1) n (%)
same,TRAE Hypertriglyceridemia,"450 mg QD (n=14), Grade 1–2",2 (14.3) n (%)
same,TRAE Hyperuricemia,"450 mg QD (n=14), Grade 1–2",3 (21.4) n (%)
same,TRAE Hypoalbuminemia,"450 mg QD (n=14), Grade 1–2",2 (14.3) n (%)
same,TRAE Nausea,"450 mg QD (n=14), Grade 1–2",6 (42.9) n (%)
same,TRAE Proteinuria,"450 mg QD (n=14), Grade 1–2",1 (7.1) n (%)
same,TRAE Serum creatinine elevated,"450 mg QD (n=14), Grade 1–2",10 (71.4) n (%)
same,TRAE Vomiting,"450 mg QD (n=14), Grade 1–2",6 (42.9) n (%)
same,TRAE Weight loss,"450 mg QD (n=14), Grade 1–2",3 (21.4) n (%)
same,TRAE γ-GGT elevated,"450 mg QD (n=14), Grade 1–2",3 (21.4) n (%)
same,Patients with any TRAE,"450 mg QD (n=14), Grade ≥ 3",3 (21.4) n (%)
same,TRAE ALT elevated,"450 mg QD (n=14), Grade ≥ 3",0 (0.0) n (%)
same,TRAE AST elevated,"450 mg QD (n=14), Grade ≥ 3",0 (0.0) n (%)
same,TRAE Abdominal pain,"450 mg QD (n=14), Grade ≥ 3",0 (0.0) n (%)
same,TRAE Abdominal pain upper,"450 mg QD (n=14), Grade ≥ 3",0 (0.0) n (%)
same,TRAE Appetite decreased,"450 mg QD (n=14), Grade ≥ 3",0 (0.0) n (%)
same,TRAE Conjugated bilirubin elevated,"450 mg QD (n=14), Grade ≥ 3",0 (0.0) n (%)
same,TRAE Diarrhea,"450 mg QD (n=14), Grade ≥ 3",0 (0.0) n (%)
same,TRAE Hypercholesterolemia,"450 mg QD (n=14), Grade ≥ 3",0 (0.0) n (%)
same,TRAE Hyperglycemia,"450 mg QD (n=14), Grade ≥ 3",0 (0.0) n (%)
same,TRAE Hypertriglyceridemia,"450 mg QD (n=14), Grade ≥ 3",0 (0.0) n (%)
same,TRAE Hyperuricemia,"450 mg QD (n=14), Grade ≥ 3",0 (0.0) n (%)
same,TRAE Hypoalbuminemia,"450 mg QD (n=14), Grade ≥ 3",0 (0.0) n (%)
same,TRAE Nausea,"450 mg QD (n=14), Grade ≥ 3",0 (0.0) n (%)
same,TRAE Proteinuria,"450 mg QD (n=14), Grade ≥ 3",0 (0.0) n (%)
same,TRAE Serum creatinine elevated,"450 mg QD (n=14), Grade ≥ 3",0 (0.0) n (%)
same,TRAE Vomiting,"450 mg QD (n=14), Grade ≥ 3",0 (0.0) n (%)
same,TRAE Weight loss,"450 mg QD (n=14), Grade ≥ 3",0 (0.0) n (%)
same,TRAE γ-GGT elevated,"450 mg QD (n=14), Grade ≥ 3",3 (21.4) n (%)
same,Patients with any TRAE,"600 mg QD (n=18), Grade 1–2",18 (100) n (%)
same,TRAE ALT elevated,"600 mg QD (n=18), Grade 1–2",7 (38.9) n (%)
same,TRAE AST elevated,"600 mg QD (n=18), Grade 1–2",8 (44.4) n (%)
same,TRAE Abdominal pain,"600 mg QD (n=18), Grade 1–2",7 (38.9) n (%)
same,TRAE Abdominal pain upper,"600 mg QD (n=18), Grade 1–2",2 (11.1) n (%)
same,TRAE Appetite decreased,"600 mg QD (n=18), Grade 1–2",7 (38.9) n (%)
same,TRAE Conjugated bilirubin elevated,"600 mg QD (n=18), Grade 1–2",2 (11.1) n (%)
same,TRAE Diarrhea,"600 mg QD (n=18), Grade 1–2",16 (88.9) n (%)
same,TRAE Hypercholesterolemia,"600 mg QD (n=18), Grade 1–2",4 (22.2) n (%)
same,TRAE Hyperglycemia,"600 mg QD (n=18), Grade 1–2",6 (33.3) n (%)
same,TRAE Hypertriglyceridemia,"600 mg QD (n=18), Grade 1–2",8 (44.4) n (%)
same,TRAE Hyperuricemia,"600 mg QD (n=18), Grade 1–2",10 (55.6) n (%)
same,TRAE Hypoalbuminemia,"600 mg QD (n=18), Grade 1–2",3 (16.7) n (%)
same,TRAE Nausea,"600 mg QD (n=18), Grade 1–2",9 (50.0) n (%)
same,TRAE Proteinuria,"600 mg QD (n=18), Grade 1–2",8 (44.4) n (%)
same,TRAE Serum creatinine elevated,"600 mg QD (n=18), Grade 1–2",8 (44.4) n (%)
same,TRAE Vomiting,"600 mg QD (n=18), Grade 1–2",11 (61.1) n (%)
same,TRAE Weight loss,"600 mg QD (n=18), Grade 1–2",8 (44.4) n (%)
same,TRAE γ-GGT elevated,"600 mg QD (n=18), Grade 1–2",8 (44.4) n (%)
same,Patients with any TRAE,"600 mg QD (n=18), Grade ≥ 3",5 (27.8) n (%)
same,TRAE ALT elevated,"600 mg QD (n=18), Grade ≥ 3",0 (0.0) n (%)
same,TRAE AST elevated,"600 mg QD (n=18), Grade ≥ 3",0 (0.0) n (%)
same,TRAE Abdominal pain,"600 mg QD (n=18), Grade ≥ 3",0 (0.0) n (%)
same,TRAE Abdominal pain upper,"600 mg QD (n=18), Grade ≥ 3",0 (0.0) n (%)
same,TRAE Appetite decreased,"600 mg QD (n=18), Grade ≥ 3",0 (0.0) n (%)
same,TRAE Conjugated bilirubin elevated,"600 mg QD (n=18), Grade ≥ 3",0 (0.0) n (%)
same,TRAE Diarrhea,"600 mg QD (n=18), Grade ≥ 3",2 (11.1) n (%)
same,TRAE Hypercholesterolemia,"600 mg QD (n=18), Grade ≥ 3",0 (0.0) n (%)
same,TRAE Hyperglycemia,"600 mg QD (n=18), Grade ≥ 3",0 (0.0) n (%)
same,TRAE Hypertriglyceridemia,"600 mg QD (n=18), Grade ≥ 3",0 (0.0) n (%)
same,TRAE Hyperuricemia,"600 mg QD (n=18), Grade ≥ 3",0 (0.0) n (%)
same,TRAE Hypoalbuminemia,"600 mg QD (n=18), Grade ≥ 3",0 (0.0) n (%)
same,TRAE Nausea,"600 mg QD (n=18), Grade ≥ 3",0 (0.0) n (%)
same,TRAE Proteinuria,"600 mg QD (n=18), Grade ≥ 3",0 (0.0) n (%)
same,TRAE Serum creatinine elevated,"600 mg QD (n=18), Grade ≥ 3",1 (5.6) n (%)
same,TRAE Vomiting,"600 mg QD (n=18), Grade ≥ 3",0 (0.0) n (%)
same,TRAE Weight loss,"600 mg QD (n=18), Grade ≥ 3",0 (0.0) n (%)
same,TRAE γ-GGT elevated,"600 mg QD (n=18), Grade ≥ 3",1 (5.6) n (%)
same,DLT events,"600 mg QD, cycle 1, dose-escalation phase, grade 3 serum creatinine elevated",One
same,Patients with any TRAE,"800 mg QD (n=4), Grade 1–2",3 (75.0) n (%)
same,TRAE ALT elevated,"800 mg QD (n=4), Grade 1–2",0 (0.0) n (%)
same,TRAE AST elevated,"800 mg QD (n=4), Grade 1–2",1 (25.0) n (%)
same,TRAE Abdominal pain,"800 mg QD (n=4), Grade 1–2",3 (75.0) n (%)
same,TRAE Abdominal pain upper,"800 mg QD (n=4), Grade 1–2",0 (0.0) n (%)
same,TRAE Appetite decreased,"800 mg QD (n=4), Grade 1–2",1 (25.0) n (%)
same,TRAE Conjugated bilirubin elevated,"800 mg QD (n=4), Grade 1–2",0 (0.0) n (%)
same,TRAE Diarrhea,"800 mg QD (n=4), Grade 1–2",3 (75.0) n (%)
same,TRAE Hypercholesterolemia,"800 mg QD (n=4), Grade 1–2",1 (25.0) n (%)
same,TRAE Hyperglycemia,"800 mg QD (n=4), Grade 1–2",1 (25.0) n (%)
same,TRAE Hypertriglyceridemia,"800 mg QD (n=4), Grade 1–2",2 (50.0) n (%)
same,TRAE Hyperuricemia,"800 mg QD (n=4), Grade 1–2",3 (75.0) n (%)
same,TRAE Hypoalbuminemia,"800 mg QD (n=4), Grade 1–2",1 (25.0) n (%)
same,TRAE Nausea,"800 mg QD (n=4), Grade 1–2",1 (25.0) n (%)
same,TRAE Proteinuria,"800 mg QD (n=4), Grade 1–2",2 (50.0) n (%)
same,TRAE Serum creatinine elevated,"800 mg QD (n=4), Grade 1–2",2 (50.0) n (%)
same,TRAE Vomiting,"800 mg QD (n=4), Grade 1–2",2 (50.0) n (%)
same,TRAE Weight loss,"800 mg QD (n=4), Grade 1–2",2 (50.0) n (%)
same,TRAE γ-GGT elevated,"800 mg QD (n=4), Grade 1–2",2 (50.0) n (%)
same,Patients with any TRAE,"800 mg QD (n=4), Grade ≥ 3",0 (0.0) n (%)
same,TRAE ALT elevated,"800 mg QD (n=4), Grade ≥ 3",0 (0.0) n (%)
same,TRAE AST elevated,"800 mg QD (n=4), Grade ≥ 3",0 (0.0) n (%)
same,TRAE Abdominal pain,"800 mg QD (n=4), Grade ≥ 3",0 (0.0) n (%)
same,TRAE Abdominal pain upper,"800 mg QD (n=4), Grade ≥ 3",0 (0.0) n (%)
same,TRAE Appetite decreased,"800 mg QD (n=4), Grade ≥ 3",0 (0.0) n (%)
same,TRAE Conjugated bilirubin elevated,"800 mg QD (n=4), Grade ≥ 3",0 (0.0) n (%)
same,TRAE Diarrhea,"800 mg QD (n=4), Grade ≥ 3",0 (0.0) n (%)
same,TRAE Hypercholesterolemia,"800 mg QD (n=4), Grade ≥ 3",0 (0.0) n (%)
same,TRAE Hyperglycemia,"800 mg QD (n=4), Grade ≥ 3",0 (0.0) n (%)
